These results are taken from article PMC5362899, “Structural insights into the nucleotide base specificity of P2X receptors” (Scientific Reports, 2017).

Type in all cases: cell-based
For assay [1], the target named is T1, rat P2X4 rT186S mutant (Rattus norvegicus, UniProt P51577, T186S).
T1 construct: rat P2X4 (NP_113782.1; WT and mutants) were transcribed from pGEMHE plasmids; expressed in transfected cells; host or cells: Xenopus laevis oocytes injected with cRNA from pGEMHE
T1 sequence (P51577 1-388 T186S): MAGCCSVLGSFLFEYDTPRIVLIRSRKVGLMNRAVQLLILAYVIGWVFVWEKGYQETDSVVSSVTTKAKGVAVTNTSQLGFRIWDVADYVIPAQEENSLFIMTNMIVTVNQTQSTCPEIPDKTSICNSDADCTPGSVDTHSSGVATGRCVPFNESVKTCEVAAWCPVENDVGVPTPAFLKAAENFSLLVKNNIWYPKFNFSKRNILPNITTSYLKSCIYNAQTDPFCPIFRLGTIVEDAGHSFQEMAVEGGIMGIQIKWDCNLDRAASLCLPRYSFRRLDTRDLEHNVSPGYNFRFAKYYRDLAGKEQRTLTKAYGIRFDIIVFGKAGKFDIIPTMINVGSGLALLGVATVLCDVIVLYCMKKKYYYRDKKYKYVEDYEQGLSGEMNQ
As to the kind of experiment: Two-Electrode Voltage Clamp recording, rat P2X4 T186S mutant in Xenopus oocytes. As to conditions: for nucleotide-evoked currents: GTP and UTP applied at 3 mM (Fig. S4); for EC50: oocytes held at −70 mV, n = 9, read-out: EC50 (evoked current, dose-response). From the text: (§1) To further investigate the functional roles of the residues involved in the base recognition, T189 and R143, we performed an electrophysiological analysis with the rat P2X4, since its electrophysiological properties have been well established. We first assessed the functional role of T189 in zfP2X4 and introduced mutations at the equivalent residue of the rat P2X4 to create three mutants (^rT186A, ^rT186V and ^rT186S; the superscript “r” means rat P2X4). […] Therefore, we examined the ^rWT and the ^rT186S mutant.
(§2) Figure 4 Current responses of ^rWT, ^rT186S, ^rH140A and ^rH140R evoked by ATP and CTP. (A,B) Representative currents of ^rWT evoked by ATP (1–300 μM) (A) and CTP (10–10,000 μM) (B). (C,D) Representative currents of the ^rT186S mutant evoked by ATP (1–300 μM) (C) and CTP (10–10,000 μM) (D). (E,F) Representative currents of the ^rH140A mutant evoked by ATP (1–300 μM) (E) and CTP (10–10,000 μM) (F). (G,H) Representative currents of the ^rH140R mutant evoked by ATP (1–300 μM) (G) and CTP (10–10,000 μM) (H). (I–K) Concentration-response curves evoked by ATP and CTP in the ^rWT and the ^rT186S mutant (I), in the ^rWT and the ^rH140A mutant (J) and in the ^rWT and the ^rH140R mutant (K). Symbols are defined in the figure, and bars depict means ± SEM (n = 7–9).
(§3) The cRNAs encoding zebrafish P2X4 (NP_705939; WT) and rat P2X4 (NP_113782.1; WT and mutants) were transcribed from pGEMHE plasmids, using a mMessage mMachine® T7 ULTRA kit (Ambion, Huntingdon, Cambridgeshire, UK). Xenopus laevis oocytes were prepared, and RNA (100 ng for zebrafish P2X4, and 20 ng for rat P2X4) was injected into the oocytes. The oocytes were incubated at 18 °C in Barth’s solution, containing 88 mM NaCl, 1 mM KCl, 2.4 mM NaHCO3, 10 mM HEPES, 0.33 mM Ca(NO3)2, 0.41 mM CaCl2, and 0.82 mM MgSO4, pH 7.4, supplemented with 50 μg/ml gentamicin, and were used for recording after 2–3 days. Recording solutions contained 100 mM NaCl, 5 mM HEPES, 2 mM MgCl2, pH 7.3, and nucleoside triphosphates (ATP, CTP, GTP, and UTP), which were freshly prepared each day. Oocytes were held at −70 mV with a bath-clamp amplifier (OC-725C, Warner Co., USA), and macroscopic currents were recorded and analyzed using the pClamp 10 software (Molecular Devices, USA)[33][34]. We measured n = 4 for zebrafish P2X4 data and n = 7–9 for rat P2X4 data.
(In two-electrode clamp one electrode senses voltage and the other passes current.)

In assay [2] the target is T2, rat P2X4 rH140R mutant (Rattus norvegicus, UniProt P51577, H140R).
T2 construct: rat P2X4 (NP_113782.1; WT and mutants) were transcribed from pGEMHE plasmids; expressed in transfected cells; host or cells: Xenopus laevis oocytes injected with cRNA from pGEMHE
T2 sequence (P51577 1-388 H140R): T1 sequence (P51577 1-388 T186S) with H140R, S186T
Kind of assay: Two-Electrode Voltage Clamp recording, rat P2X4 H140R mutant in Xenopus oocytes. As to conditions: for fold reduced affinity as compared with rWT: rH140R mutant vs rWT, from EC50; for EC50 / nucleotide-evoked currents: rH140R mutant; for EC50: oocytes held at −70 mV, n = 9-10, read-out: EC50 (evoked current, dose-response); for nucleotide-evoked currents: 3 mM GTP, 3 mM UTP (Fig. S4). As for the experimental part: as §2
Next we assessed the functional role of R143 in zfP2X4, as its side chain forms a hydrogen bond with the cytosine ring in the CTP-bound structure (Fig. 3A,B). This arginine residue is substituted with a similar basic residue, histidine (^rH140), in rat P2X4 (Fig. 3E).
as §3

Assay [3] concerns the target T3, rat P2X4 WT (rWT) (Rattus norvegicus, UniProt P51577).
T3 construct: rat P2X4 (NP_113782.1; WT and mutants) were transcribed from pGEMHE plasmids; expressed in transfected cells; host or cells: Xenopus laevis oocytes injected with cRNA from pGEMHE
T3 sequence (P51577 1-388): T1 sequence (P51577 1-388 T186S) with S186T
As to the kind of experiment: Two-Electrode Voltage Clamp recording, rat P2X4 WT in Xenopus oocytes. As to conditions: for nucleotide-evoked currents: GTP and UTP applied at 3 mM (Fig. S4); for EC50: oocytes held at −70 mV, n = 9, read-out: EC50 (evoked current, dose-response).
Text: as §1, §2, §3

Residue numbers refer to the chain shown, from its start.

The EC50 is the concentration at which the effect is half-maximal. As to `Nc1ncnc2c1ncn2[C@@H]1O[C@H](COP(=O)(O)OP(=O)(O)OP(=O)(O)O)[C@@H](O)[C@H]1O` [ATP, Adenosine 5-triphosphate], in assay [1], the nucleotide-evoked currents entry was “ATP- and CTP-evoked currents were detected”; the EC50 is 29.9 ± 3.1 µM. In assay [2], the “fold reduced affinity as compared with rWT” value is recorded as “about 2 fold” and the EC50 stood at 39.4 ± 5 µM. In assay [3], the nucleotide-evoked currents result is “ATP- and CTP-evoked currents were detected”; the EC50 amounted to 16.2 ± 5.4 µM.

As to `Nc1ccn([C@@H]2O[C@H](COP(=O)(O)OP(=O)(O)OP(=O)(O)O)[C@@H](O)[C@H]2O)c(=O)n1` [CTP], the nucleotide-evoked currents entry was “ATP- and CTP-evoked currents were detected” in assay [1]; “ATP- and CTP-evoked currents were detected” in assay [3]. Moreover, the EC50 in assay [1] was determined as 557 ± 120 µM; in assay [2], 1100 ± 140 µM; in assay [3], 564 ± 170 µM. Also, the “fold reduced affinity as compared with rWT” value in assay [2] is given as “about 2 fold”.

As for `Nc1nc2c(ncn2[C@@H]2O[C@H](COP(=O)(O)OP(=O)(O)OP(=O)(O)O)[C@@H](O)[C@H]2O)c(=O)[nH]1` [GTP], the nucleotide-evoked currents entry is “no GTP- and UTP-evoked currents were detected” in assay [1]; “no GTP- and UTP-evoked currents were detected” in assay [2]; “no GTP- and UTP-evoked currents were detected” in assay [3].

Turning to `O=c1ccn([C@@H]2O[C@H](COP(=O)(O)OP(=O)(O)OP(=O)(O)O)[C@@H](O)[C@H]2O)c(=O)[nH]1` [UTP], the nucleotide-evoked currents entry in assay [1] was “no GTP- and UTP-evoked currents were detected”; in assay [2], “no GTP- and UTP-evoked currents were detected”; in assay [3], “no GTP- and UTP-evoked currents were detected”.
